Experimental findings from BindingDB's records for doi:10.1016/j.bmcl.2005.07.039 (Universit&#233, 2005) are described below.

The structures appear in SMILES notation. Where only a bound is given, the exact number is not on record here.

The target in the first assay is Sigma non-opioid intracellular receptor 1 (Cavia porcellus) (UniProt Q60492). Briefly: Inhibitory activity against Opioid receptor sigma 1 in guinea pig cerebral cortex using [3H](+)-pentazocine as radio ligand at pH 7.5 for 150 min at 22 C.
Sigma non-opioid intracellular receptor 1 (Cavia porcellus), sequence (Q60492 whole entry, looked up): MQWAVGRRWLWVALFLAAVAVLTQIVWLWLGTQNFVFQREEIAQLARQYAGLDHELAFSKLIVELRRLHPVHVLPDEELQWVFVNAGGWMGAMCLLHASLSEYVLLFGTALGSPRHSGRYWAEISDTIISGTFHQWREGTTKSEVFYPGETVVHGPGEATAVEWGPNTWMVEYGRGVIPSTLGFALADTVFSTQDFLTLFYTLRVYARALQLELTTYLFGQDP
For `CN(CCCCCCn1c(O)c2n(c1=O)Cc1ccccc1C2)CCc1ccccc1` [(S)-2-[6-(Methyl-phenethyl-amino)-hexyl]-10,10a-dihydro-5H-imidazo[1,5-b]isoquinoline-1,3-dione], the midpoint of inhibition, the IC50, lay at 29.5 nM.

For the next assay the target is unchanged. Briefly: Inhibitory activity against opioid receptor sigma 1 in guinea pig cerebral cortex using [3H](+)-pentazocine as radio ligand at pH 7.5 for 150 min at 22 degree C.
As for `CC(C)NC(=O)CN1CCN(CCn2c(O)c3n(c2=O)Cc2ccccc2C3)CC1` [2-{4-[2-((S)-1,3-Dioxo-1,5,10,10a-tetrahydro-imidazo[1,5-b]isoquinolin-2-yl)-ethyl]-piperazin-1-yl}-N-isopropyl-acetamide], the IC50 (in general, the concentration that inhibits the measured activity by half) was more than 100 nM. On the same count and under the same terms, the figure for `O=c1n(CCCNCc2ccccc2)c(O)c2n1Cc1ccccc1C2` [(S)-2-(3-Benzylamino-propyl)-10,10a-dihydro-5H-imidazo[1,5-b]isoquinoline-1,3-dione] is 9.6 nM; for `CN1CCN(CCn2c(O)c3n(c2=O)Cc2ccccc2C3)CC1` [(S)-2-[2-(4-Methyl-piperazin-1-yl)-ethyl]-10,10a-dihydro-5H-imidazo[1,5-b]isoquinoline-1,3-dione] it is more than 100 nM; for `CN(CCn1c(O)c2n(c1=O)Cc1ccccc1C2)Cc1ccccc1` [(S)-2-[2-(Benzyl-methyl-amino)-ethyl]-10,10a-dihydro-5H-imidazo[1,5-b]isoquinoline-1,3-dione] it is 4.5 nM. Compound `CN(CCc1ccccc1)CCn1c(O)c2n(c1=O)Cc1ccccc1C2` [(S)-2-[2-(Methyl-phenethyl-amino)-ethyl]-10,10a-dihydro-5H-imidazo[1,5-b]isoquinoline-1,3-dione] registered an IC50 of 12.6 nM. The compound `O=c1n(CCCNC2CCN(Cc3ccccc3)CC2)c(O)c2n1Cc1ccccc1C2` [(S)-2-[3-(1-Benzyl-piperidin-4-ylamino)-propyl]-10,10a-dihydro-5H-imidazo[1,5-b]isoquinoline-1,3-dione] returned an IC50 of 82.3 nM. Regarding `O=c1n(CCCN2CCN(Cc3ccc4c(c3)OCO4)CC2)c(O)c2n1Cc1ccccc1C2` [(S)-2-[3-(4-Benzo[1,3]dioxol-5-ylmethyl-piperazin-1-yl)-propyl]-10,10a-dihydro-5H-imidazo[1,5-b]isoquinoline-1,3-dione], the IC50 was found to be 23.8 nM. This IC50 is about 3.5-fold lower than that of the compound before. Same read-out and setting: the figure for `O=c1n(CCCN2CCN(Cc3ccccc3)CC2)c(O)c2n1Cc1ccccc1C2` [(S)-2-[3-(4-Benzyl-piperazin-1-yl)-propyl]-10,10a-dihydro-5H-imidazo[1,5-b]isoquinoline-1,3-dione] is 32 nM; for `CN1CCN(CCCn2c(O)c3n(c2=O)Cc2ccccc2C3)CC1` [(S)-2-[3-(4-Methyl-piperazin-1-yl)-propyl]-10,10a-dihydro-5H-imidazo[1,5-b]isoquinoline-1,3-dione] it is more than 100 nM.

`O=c1n(CCCNCCCCc2ccccc2)c(O)c2n1Cc1ccccc1C2` [(S)-2-[3-(4-Phenyl-butylamino)-propyl]-10,10a-dihydro-5H-imidazo[1,5-b]isoquinoline-1,3-dione] yielded an IC50 of 10.5 nM. `CN(CCCn1c(O)c2n(c1=O)Cc1ccccc1C2)CCc1ccccc1` [(S)-2-[3-(Methyl-phenethyl-amino)-propyl]-10,10a-dihydro-5H-imidazo[1,5-b]isoquinoline-1,3-dione] gave an IC50 of 2.1 nM. Regarding `CN(CCCn1c(O)c2n(c1=O)Cc1ccccc1C2)c1ccccc1` [(S)-2-[3-(Methyl-phenyl-amino)-propyl]-10,10a-dihydro-5H-imidazo[1,5-b]isoquinoline-1,3-dione], the IC50 is more than 100 nM. `CN(CCCCn1c(O)c2n(c1=O)Cc1ccccc1C2)Cc1ccccc1` [(S)-2-[4-(Benzyl-methyl-amino)-butyl]-10,10a-dihydro-5H-imidazo[1,5-b]isoquinoline-1,3-dione]: the IC50 was found to be 4.2 nM.

In turn, `CN(CCCCn1c(O)c2n(c1=O)Cc1ccccc1C2)CCc1ccccc1` [(S)-2-[4-(Methyl-phenethyl-amino)-butyl]-10,10a-dihydro-5H-imidazo[1,5-b]isoquinoline-1,3-dione] came in with an IC50 of 9.9 nM. `CN(CCCCCn1c(O)c2n(c1=O)Cc1ccccc1C2)Cc1ccccc1` [(S)-2-[5-(Benzyl-methyl-amino)-pentyl]-10,10a-dihydro-5H-imidazo[1,5-b]isoquinoline-1,3-dione] displayed an IC50 of 5 nM. `CN(CCCCCn1c(O)c2n(c1=O)Cc1ccccc1C2)CCc1ccccc1` [(S)-2-[5-(Methyl-phenethyl-amino)-pentyl]-10,10a-dihydro-5H-imidazo[1,5-b]isoquinoline-1,3-dione]: the IC50 stood at 11.7 nM. The compound `CN(CCCCCCn1c(O)c2n(c1=O)Cc1ccccc1C2)Cc1ccccc1` [(S)-2-[6-(Benzyl-methyl-amino)-hexyl]-10,10a-dihydro-5H-imidazo[1,5-b]isoquinoline-1,3-dione] had an IC50 of 9.4 nM. This IC50 and that of the compound before are within 1.5-fold of each other. As to `O=c1n(CCN2CCN(CCO)CC2)c(O)c2n1Cc1ccccc1C2` [(S)-2-{2-[4-(2-Hydroxy-ethyl)-piperazin-1-yl]-ethyl}-10,10a-dihydro-5H-imidazo[1,5-b]isoquinoline-1,3-dione], the IC50 is more than 100 nM.

`CN(C)CCCN1CCN(CCn2c(O)c3n(c2=O)Cc2ccccc2C3)CC1` [(S)-2-{2-[4-(3-Dimethylamino-propyl)-piperazin-1-yl]-ethyl}-10,10a-dihydro-5H-imidazo[1,5-b]isoquinoline-1,3-dione]: the IC50 is more than 1000 nM.

The compound `CN(CCCc1ccccc1)CCn1c(O)c2n(c1=O)Cc1ccccc1C2` [(S)-2-{2-[Methyl-(3-phenyl-propyl)-amino]-ethyl}-10,10a-dihydro-5H-imidazo[1,5-b]isoquinoline-1,3-dione] came in with an IC50 of 13.6 nM. As to `CN(CCCCc1ccccc1)CCn1c(O)c2n(c1=O)Cc1ccccc1C2` [(S)-2-{2-[Methyl-(4-phenyl-butyl)-amino]-ethyl}-10,10a-dihydro-5H-imidazo[1,5-b]isoquinoline-1,3-dione], the IC50 worked out at 3.2 nM. This IC50 is about 4.2-fold lower than that of the compound before. In turn, `CN(CCCCCc1ccccc1)CCn1c(O)c2n(c1=O)Cc1ccccc1C2` [(S)-2-{2-[Methyl-(5-phenyl-pentyl)-amino]-ethyl}-10,10a-dihydro-5H-imidazo[1,5-b]isoquinoline-1,3-dione] gave an IC50 of 2.9 nM. Consider `O=c1n(CCCN2CCN(CCO)CC2)c(O)c2n1Cc1ccccc1C2` [(S)-2-{3-[4-(2-Hydroxy-ethyl)-piperazin-1-yl]-propyl}-10,10a-dihydro-5H-imidazo[1,5-b]isoquinoline-1,3-dione], for which the IC50 is more than 100 nM. The same measure, in the same setting: under `CN(C)CCCN1CCN(CCCn2c(O)c3n(c2=O)Cc2ccccc2C3)CC1` [(S)-2-{3-[4-(3-Dimethylamino-propyl)-piperazin-1-yl]-propyl}-10,10a-dihydro-5H-imidazo[1,5-b]isoquinoline-1,3-dione] stands more than 100 nM.
